Read-outs that look alike come from different tables or passages of the source.

The values that follow come from US4241064A, “9H-Pyrido[3,4-b]indole derivatives” (Nippon Shinyaku Co. Ltd., priority 1978, dated 1980).

In one assay the target is xanthine-oxidase (Bos taurus, UniProt P80457). In words: xanthine-oxidase inhibitory activity (pre-incubation 5 min, then 10 μM xanthine; Kalker). The format is biochemical. The settings on record: Table I; phosphate buffer pH 7.5, 10 μM xanthine; read-out: IC50 (xanthine-oxidase inhibition) (converted). The text has this: The foregoing compounds have the property of inhibiting the enzyme xanthine-oxidase. As is known, xanthine-oxidase inhibitors improve hyperuricacidemia by suppressing the formation of uric acid and, as such, find use as therapeutic and prophylactic agents in the treatment of gout, calculus in the urinary organ, tissue degeneration of the circulatory system, and the like. The xanthine-oxidase inhibitory activity is expressed in terms of the concentration of the agent at which a 50% inhibition of xanthine-oxidase activity is observed (IC50). This can be readily measured pre-incubation of test specimens at varying concentrations in phosphate buffer (pH 7.5) for 5 minutes, then adding 10 μM of xanthine, measuring the enzyme activity (Kalker), and comparing the assay result with the activity of a control to determine the percent inhibition. (The IC50 value being derived from a plot of concentration versus percent inhibition).
Sequence of xanthine-oxidase (P80457 whole entry): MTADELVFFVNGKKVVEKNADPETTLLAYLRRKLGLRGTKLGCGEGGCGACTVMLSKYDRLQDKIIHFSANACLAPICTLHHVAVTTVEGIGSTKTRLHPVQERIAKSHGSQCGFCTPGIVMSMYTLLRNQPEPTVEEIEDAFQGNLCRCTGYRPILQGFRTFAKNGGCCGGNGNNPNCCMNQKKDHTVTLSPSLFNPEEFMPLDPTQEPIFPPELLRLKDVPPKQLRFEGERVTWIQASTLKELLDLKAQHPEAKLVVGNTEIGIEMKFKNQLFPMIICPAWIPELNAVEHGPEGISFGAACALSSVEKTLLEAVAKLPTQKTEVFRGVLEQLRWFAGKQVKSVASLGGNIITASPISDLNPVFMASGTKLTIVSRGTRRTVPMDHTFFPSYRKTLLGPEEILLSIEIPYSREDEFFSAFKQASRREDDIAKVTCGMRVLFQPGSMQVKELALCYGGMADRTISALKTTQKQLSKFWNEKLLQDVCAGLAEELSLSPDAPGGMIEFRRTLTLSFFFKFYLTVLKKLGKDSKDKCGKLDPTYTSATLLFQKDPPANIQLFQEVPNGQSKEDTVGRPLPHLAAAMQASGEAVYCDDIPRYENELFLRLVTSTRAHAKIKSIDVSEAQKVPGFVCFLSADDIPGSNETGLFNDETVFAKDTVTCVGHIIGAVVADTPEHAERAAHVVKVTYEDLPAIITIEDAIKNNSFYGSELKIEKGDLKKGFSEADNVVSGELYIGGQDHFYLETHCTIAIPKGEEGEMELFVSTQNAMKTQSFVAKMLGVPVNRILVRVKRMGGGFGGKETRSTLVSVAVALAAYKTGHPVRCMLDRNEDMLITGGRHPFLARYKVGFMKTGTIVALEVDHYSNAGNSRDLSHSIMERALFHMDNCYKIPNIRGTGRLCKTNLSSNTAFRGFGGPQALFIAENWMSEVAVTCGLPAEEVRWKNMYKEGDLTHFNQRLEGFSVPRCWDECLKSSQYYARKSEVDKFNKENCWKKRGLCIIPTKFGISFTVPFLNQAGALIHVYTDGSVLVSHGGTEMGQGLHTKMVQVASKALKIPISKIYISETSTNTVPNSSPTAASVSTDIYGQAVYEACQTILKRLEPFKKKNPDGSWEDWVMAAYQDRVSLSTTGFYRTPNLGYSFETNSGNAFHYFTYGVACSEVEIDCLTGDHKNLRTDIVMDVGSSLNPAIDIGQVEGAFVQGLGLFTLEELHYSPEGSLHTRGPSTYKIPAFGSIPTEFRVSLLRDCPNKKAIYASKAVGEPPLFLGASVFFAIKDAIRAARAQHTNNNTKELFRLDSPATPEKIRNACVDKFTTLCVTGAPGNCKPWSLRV
According to the present invention, commercial picrasma wood, dry pulverized picrasma wood or, preferably, the dry pulverized powder of its heart wood, is extracted with a polar organic solvent such as water or methanol and the extract is then concentrated to yield a whole picrasma extract. This extract is then fractionated as for example by Sephadex LH or silica gel chromatography. The fractions are assayed for xanthine-oxidase inhibitory activity and the active fraction this then purified as by recrystallization.

In assay [1] the test system is Ehrlich ascites cells. In words: survival of mice transplanted with Ehrlich ascites cells, i.p. dosing for 7 consecutive days (potentiation of mitomycin C). The conditions noted are these: for Survival Rate (%): i.p. 7 days, compound 1 50 mg/kg/day, mitomycin C 0.5 mg/kg/day. It counts as in vivo, ddY mice.
Experimental: (§1) Thus, ddY mice (male, body weights ca 18 g) were reared for a week and 1×10^6 Ehrlich ascites cells/animal were intraperitoneally transplanted. After 24 hours, mitomycin C or/and compound 1 were administered intraperitoneally for 7 consecutive days.
For assay [2], the system named is Ehrlich ascites cells. The settings on record: single i.p. at day 6, mitomycin C 1 mg/kg, compound 1 50 mg/kg.
Experimental: as §1

With `O=Cc1ncc(O)c2c1[nH]c1ccccc12` [Compound 1, 1-formyl-4-hydroxy-9H-pyrido[3,4-b]indole], at xanthine-oxidase, the IC50 is 0.00306 µM. Besides, the “Survival Rate (%)” value in the assay with Ehrlich ascites cells [1] (Day 16) came to 100%; in the assay on Ehrlich ascites cells [1] (Day 17) it was 90%; in the assay on Ehrlich ascites cells [1] (Day 18) it was 80%; in the assay on Ehrlich ascites cells [1] (Day 19), 80%; with Ehrlich ascites cells [1] (Day 20), 70%; in the assay on Ehrlich ascites cells [1] (Day 21), 70%. For the same molecule, the “Survival Rate (%)” value was 40% in the assay with Ehrlich ascites cells [1] (Day 22); 30% with Ehrlich ascites cells [1] (Day 23); 10% in the assay on Ehrlich ascites cells [1] (Day 24); 10% in the assay on Ehrlich ascites cells [1] (Day 25); 10% with Ehrlich ascites cells [1] (Day 26). In addition, the “potentiation of the antitumor activity of mitomycin C and similar antibiotics” value in the assay on Ehrlich ascites cells [1] (result in words, conventional laboratory models) was “significant potentiation of the antitumor activity of mitomycin C”.

Consider `OCc1nccc2c1[nH]c1ccccc12` [H H CH2 OH, 1-Hydroxymethyl-9H-Pyrido[3,4-b]Indole], for which the IC50 on xanthine-oxidase was 21.7 µM.

Turning to `O=Cc1nccc2c1[nH]c1ccccc12` [H H CHO], the IC50 on xanthine-oxidase was 4.08 µM.

Regarding `COC(=O)c1nccc2c1[nH]c1ccccc12` [H H COOCH3, 1-carbomethoxy-9H-pyrido[3,4-b]indole], at xanthine-oxidase, the IC50 is 177 µM.

`O=Cc1nc(O)cc2c1[nH]c1ccccc12` [H OH CHO, 1-Formyl-3-Hydroxy-9H-Pyrido[3,4-b]Indole]: the IC50 on xanthine-oxidase is 1.79 µM.

Turning to `CO[C@@]12[C@H](COC(N)=O)C3=C(C(=O)C(C)=C(N)C3=O)N1C[C@@H]1N[C@@H]12` [Mitomycin, mitomycin C], the “No. Surviving” value in the assay on Ehrlich ascites cells [2] (Day 10), in the assay on Ehrlich ascites cells [2] (Day 11), with Ehrlich ascites cells [2] (Day 12), in the assay on Ehrlich ascites cells [2] (Day 13), with Ehrlich ascites cells [2] (Day 14) and in the assay on Ehrlich ascites cells [2] (Day 15) was 7 throughout. The “No. Surviving” value in the assay on Ehrlich ascites cells [2] (Day 16) is reported as 7; in the assay on Ehrlich ascites cells [2] (Day 17), 7; in the assay with Ehrlich ascites cells [2] (Day 18), 5; with Ehrlich ascites cells [2] (Day 19), 5; with Ehrlich ascites cells [2] (Day 20), 4; in the assay with Ehrlich ascites cells [2] (Day 21), 4. The “No. Surviving” value was determined as 4 in the assay on Ehrlich ascites cells [2] (Day 22); 2 with Ehrlich ascites cells [2] (Day 23); 2 in the assay on Ehrlich ascites cells [2] (Day 24); 1 in the assay on Ehrlich ascites cells [2] (Day 25); 1 in the assay on Ehrlich ascites cells [2] (Day 26); 1 in the assay on Ehrlich ascites cells [2] (Day 27). Moreover, the “No. Surviving” value in the assay with Ehrlich ascites cells [2] (Day 28) was 1. The “Survival Rate (%)” value in the assay on Ehrlich ascites cells [1] (Day 16), with Ehrlich ascites cells [1] (Day 17), with Ehrlich ascites cells [1] (Day 18), with Ehrlich ascites cells [1] (Day 19), in the assay with Ehrlich ascites cells [1] (Day 20) and in the assay with Ehrlich ascites cells [1] (Day 21) was 100% each time. Further, the “Survival Rate (%)” value in the assay with Ehrlich ascites cells [1] (Day 22), in the assay on Ehrlich ascites cells [1] (Day 23), in the assay with Ehrlich ascites cells [1] (Day 24), in the assay with Ehrlich ascites cells [1] (Day 25), with Ehrlich ascites cells [1] (Day 26) and with Ehrlich ascites cells [1] (Day 27) was 90% throughout. The “Survival Rate (%)” value with Ehrlich ascites cells [1] (Day 28) was 80%; in the assay on Ehrlich ascites cells [1] (Day 29), 70%; with Ehrlich ascites cells [1] (Day 30), 70%; in the assay on Ehrlich ascites cells [1] (Day 33), 70%; in the assay with Ehrlich ascites cells [1] (Day 34), 60%; with Ehrlich ascites cells [1] (Day 38), 60%. Moreover, the “Survival Rate (%)” value in the assay on Ehrlich ascites cells [1] (Day 39) came to 50%; in the assay with Ehrlich ascites cells [1] (Day 48) it was 50%; in the assay with Ehrlich ascites cells [1] (Day 49), 40%; in the assay on Ehrlich ascites cells [1] (Day 52) it was 40%; with Ehrlich ascites cells [1] (Day 53) it was 30%; with Ehrlich ascites cells [1] (Day 56), 30%. Further, the “Survival Rate (%)” value in the assay with Ehrlich ascites cells [1] (Day 57), in the assay with Ehrlich ascites cells [1] (Day 58), in the assay with Ehrlich ascites cells [1] (Day 59) and with Ehrlich ascites cells [1] (Day 60 after transplantation) was 20% throughout.

As for `CC(=O)Oc1cnc(C=O)c2[nH]c3ccccc3c12` [OCOCH3 H CHO, 1-Formyl-4-Acetoxy-9H-Pyrido[3,4-b]Indole], the IC50 on xanthine-oxidase is 0.00669 µM.

On to `OCc1ncc(O)c2c1[nH]c1ccccc12` [OH H CH2 OH, 1-Hydroxymethyl-4-Hydroxy-9H-pyrido[3,4-b]Indole], for which, on xanthine-oxidase, the IC50 was 0.336 µM.

As for `COC(=O)c1ncc(O)c2c1[nH]c1ccccc12` [OH H COOCH3, 1-Carbomethoxy-4-Hydroxy-9H-Pyrido[3,4-b]Indole], the IC50 on xanthine-oxidase was 78.4 µM.

For `O=C(O)c1ncc(O)c2c1[nH]c1ccccc12` [OH H COOH, 1-Carboxy-4-Hydroxy-9H-Pyrido[3,4-b]Indole], the IC50 at xanthine-oxidase is 1.1 µM.
